Data as given in patent publication US4782070A, “Cerebral dysfunction therapeutic agent, which comprises a dihydropyridine compound” (Fujisawa Pharmaceutical Co., Ltd., priority 1986, dated 1988).

Assays:
vertebral artery of dog = test: Effect on blood flow of the vertebral artery of dog; format: in vivo, Mongrel dogs
Protocol: Mongrel dogs of either sex (5-10 dogs per group), weighing 8-18 kg, were anesthetized with pentobarbital sodium (35 mg/kg, ip) and an electromagnetic flowprobe was fitted to the right vertebral artery and the blood flow of the vertebral artery was measured by a flow meter. Polyethylene cannulae were inserted into the femoral artery for measurement of blood pressure and into the femoral vein or the duodenum (after celiotomy) for administration of test compounds respectively.
Test compounds were dissolved in a mixture of ethanol, polyethylene glycol and distilled water, and administered in a volume of 0.2 ml/kg (iv) or 0.5 ml/kg (id). Incidentally, dogs were fasted for 18 hours in case of intraduodenum administration.

[1] = system: Production of Lipid Peroxide in cerebral mitochondria of rat; test: Effect on Production of Lipid Peroxide in cerebral mitochondria of rat; format: biochemical, male Wistar rats; details: 37° C., 1 hour
Protocol: Cerebral mitochondria of male Wistar rats were isolated and mixed with a mixture of ascorbic acid (100 μM), ferrous sulfate (10 μM), ferric sulfate (20 μM) and test compound, and the mixture was incubated at 37° C. for 1 hour. The amount of malondialdehyde produced in the incubated mixture was measured by thiobarbituric acid method [Shimada et al., Biochim. Biophy. Acta, vol. 489, pp 163-172 (1977)].

[2] = system: ischemic cerebral cortex of rat; test: Effect on blood flow in ischemic cerebral cortex of rat; format: in vivo, Male Wistar rats; details: po; for Increase in Blood Flow (Time-course of Vasodilation in Cortex of Occlusion Side): 1 mg/kg
Protocol: Male Wistar rats (5 rats per group), weighing 229-300 g, were anesthetized with thiopental sodium (50 mg/kg, ip). A skin incision was made in the middle of the right external auditory canal and the orbit, and a craniectomy (diameter: 2-2.5 mm) was made, using a dental drill, in the middle of the foramen ovale and the foramen opticum. After the dura was opened, the middle cerebral artery was exposed and occluded by electrocauterization using bipolar cautery.
After closure of the surgical wound, aminobenzylpenicillin (200 mg/kg) was divisionally administered into the operated part and subcutaneously.
One week after the surgery, the rats were anesthetized with urethane (1.25 g/kg, sc) and cannulae for artificial respiration and for measurement of blood pressure were inserted into the trachea and into the right femoral artery respectively, and then a stomach tube for administration of test compounds was inserted into stomach. The rats were fixed to stereotactic head-holders and craniectomies (diameter: 0.5 mm) were made on both sides of parietal skull, and then electrodes for measurement of local cerebral blood flow were inserted into right and left cerebral cortex (A=5, L=±5.0, H=2).
The blood flows of the ischemic (occlusion side) and non-ischemic (non-occlusion side) cerebral cortex of the rats used in this test were 17.4±4.5 and 51.4±1.2 ml/brain 100 g/minute, respectively. Test Compounds were dissolved in 100% polyethylene glycol and administered orally in a volume of 1 ml/kg.
The blood flow was calculated according to the following calculating formula after obtaining a half life (t1/2) from the clearance curve. [formula] λ: partition coefficient of hydrogen gas between blood and tissues (=1.0)
t1/2: a half life of concentration of hydrogen gas in brain

[3] = system: isolated canine basilar artery; test: Effect on isolated canine basilar artery (relaxation of KCl contraction); parameters: species or system mongrel dogs; details: Canis lupus familiaris; dose inducing 50% relaxation; contraction by 35 mM KCl; papaverine 0.1 mM = 100%; mean±standard error; read-out: ED50 (the source's name)
Protocol: Under pentobarbital sodium anesthesia (35 mg/kg, ip or 30 mg/kg, iv), the basilar arteries (outside diameter: 1.0-1.5 mm) were isolated from mongrel dogs (weighing 8-18 kg) of either sex (6 dogs per group) and cut spirally (width 1 mm×length 15-20 mm). The spiral strips were suspended in a Tyrode's solution aerating with a gas mixture of 95% oxygen and 5% carbon dioxide, and the resting tension was adjusted to 0.5 g. After 1 hour, 35 mM potassium chloride was added to the organ bath to contract the arteries. The cumulative concentrations of the test compound, dissolved in a mixture of ethanol, polyethylene glycol and distilled water, were then added. Finally 0.1 mM papaverine was given to determine maximum relaxation.

basilar artery = test: Remitting effect on a model of vasospasm after subarachnoid hemorrhage; format: in vivo, Mongrel cats; details: femoral vein
Protocol: Mongrel cats of either sex (3-5 cats per group) were anesthetized with pentobarbital sodium (60 mg/kg, sc) and tracheal cannulae were inserted, and the test was carried out under spontaneous respiration. Following transcervical, transclival approach, the canine basilar artery was exposed by opening the dura and arachnoid maters, using an operating microscope. 30 Minutes after the surgery, a mixture of an equal volume of blood and cerebrospinal fluid (CSF) (0.2 ml) preincubated under an aseptic condition (37° C., 6-7 days) was applied on the surface of canine basilar artery. At the same time, the test compound [dissolved in a mixture of ethanol, polyethylene glycol and distilled water (2:1:7, v/v/v), administration volume: 0.2 ml] or only vehicle was administered into the right femoral vein. After 10 minutes, the blood-CSF mixture was carefully removed and microphotographs of the canine basilar artery were taken with the passage of time, and the inside diameter of the artery was measured from the microphotographs.

ischemic brain = details: Occluded rat, 1.0 mg/kg sc once a day for 3 days
Protocol: Test compounds (1.0 mg/kg) (dissolved in polyethylene glycol, administration volume: 1 ml/kg) or vehicle was administered sc once a day for 3 days beginning from the fifth day after the surgery. One hour after the last administration, the rats were frozen in liquid nitrogen and then the whole brains of the both side excluding the cerebellum were isolated separately. The right hemisphere was homogenized with ice-cooled 6% perchloric acid (20 times in volume), centrifuged (3000 r.p.m., 10 minutes at 4° C.) and then the supernatant was neutralized with 5M potassium carbonate.
After the neutralization, the supernatant was centrifuged again and the concentrations of adenosine triphosphate (ATP) and lactic acid included in the resulting supernatant were measured by enzymatic assay.

cerebral circulation = details: cited from earlier work
[4] = system: rat with transient cerebral ischemia; details: cited from earlier work

Row | SMILES | Time-course of Changes of Blood Flow (vertebral artery of dog; 32 μg/kg, iv, 5 minutes) [%] | Time-course of Changes of Blood Flow (vertebral artery of dog; 32 μg/kg, iv, 10 minutes) [%] | Time-course of Changes of Blood Flow (vertebral artery of dog; 32 μg/kg, iv, 20 minutes) [%] | Time-course of Changes of Blood Flow (vertebral artery of dog; 32 μg/kg, iv, 30 minutes) [%] | Time-course of Changes of Blood Flow (vertebral artery of dog; 32 μg/kg, iv, 60 minutes) [%] | Time-course of Changes of Blood Flow (vertebral artery of dog; 32 μg/kg, iv, 90 minutes) [%] | Time-course of Changes of Blood Flow (vertebral artery of dog; 32 μg/kg, iv, 120 minutes) [%] | Maximum Changes of Blood Flow (vertebral artery of dog; iv, 3.2 μg/kg) [%] | Maximum Changes of Blood Flow (vertebral artery of dog; iv, 10 μg/kg) [%] | Maximum Changes of Blood Flow (vertebral artery of dog; iv, 32 μg/kg) [%] | Increase in Blood Flow (Time-course of Vasodilation in Cortex of Occlusion Side) ([2]; 15 minutes) [%] | Increase in Blood Flow (Time-course of Vasodilation in Cortex of Occlusion Side) ([2]; 30 minutes) [%] | Increase in Blood Flow (Time-course of Vasodilation in Cortex of Occlusion Side) ([2]; 45 minutes) [%] | Increase in Blood Flow (Time-course of Vasodilation in Cortex of Occlusion Side) ([2]; 60 minutes) [%] | Increase in Blood Flow (Time-course of Vasodilation in Cortex of Occlusion Side) ([2]; 90 minutes) [%] | Increase in Blood Flow (Time-course of Vasodilation in Cortex of Occlusion Side) ([2]; 120 minutes) [%] | Maximum Increase in Blood Flow ([2]; Non-occlusion side, 0.1 mg/kg) [%] | Maximum Increase in Blood Flow ([2]; Non-occlusion side, 1.0 mg/kg) [%] | Maximum Increase in Blood Flow ([2]; Occlusion side, 0.1 mg/kg) [%] | Maximum Increase in Blood Flow ([2]; Occlusion side, 1.0 mg/kg) [%] | also measured
1 | COC(=O)C1=C(C#N)NC(C)=C(C(=O)OC(C)C)C1c1cccc([N+](=O)[O-])c1 (stereo not drawn) [Dihydropyridine Compound A, Isopropyl ester of 6-cyano-5-methoxycarbonyl-2-methyl-4-(3-nitrophenyl)-1,4-dihydropyridine-3-carboxylic acid] | 109.6 ± 18.3 | 96.7 ± 16.2 | 81.3 ± 15.5 | 77.7 ± 12.5 | 71.2 ± 17.5 | 61.4 ± 25.7 | 52.1 ± 23.1 | 39.2 ± 7.2 | 86.4 ± 20.6 | 109.6 ± 18.3 | 17.8 ± 2.4 | 27.4 ± 3.7 | 32.6 ± 4.6 | 28.3 ± 2.5 | 21.6 ± 6.4 | 17.5 ± 7.3 | 13.6 ± 1.7 | 26.1 ± 4.8 | 12.6 ± 3.1 | 32.6 ± 4.6 | Time-course of Changes of Blood Flow (vertebral artery of dog; 32 μg/kg, iv, 180 minutes): 31.0 ± 15.7%; Maximum Changes of Blood Flow (vertebral artery of dog; id, 10 μg/kg): 17.2 ± 6.0%; Maximum Changes of Blood Flow (vertebral artery of dog; id, 32 μg/kg): 39.7 ± 13.1%; Maximum Changes of Blood Flow (vertebral artery of dog; id, 100 μg/kg): 89.3 ± 11.5%; Inhibition of Production of Lipid Peroxide ([1]; 2.6 × 10^-4 (M)): 100.0%; Inhibition of Production of Lipid Peroxide ([1]; 2.6 × 10^-5 (M)): 96.94 ± 1.03%; EC50 [3]: 0.33 ± 0.04 nM; Time-course of Changes of the Diameter of the Artery (basilar artery; 10 μg/kg, 15 minutes): 17.0 ± 4.5%; Time-course of Changes of the Diameter of the Artery (basilar artery; 10 μg/kg, 30 minutes): 17.1 ± 4.6%; Time-course of Changes of the Diameter of the Artery (basilar artery; 10 μg/kg, 45 minutes): 18.3 ± 5.3%; Time-course of Changes of the Diameter of the Artery (basilar artery; 10 μg/kg, 60 minutes): 17.8 ± 3.8%; Time-course of Changes of the Diameter of the Artery (basilar artery; 10 μg/kg, 90 minutes): 15.5 ± 3.2%; Time-course of Changes of the Diameter of the Artery (basilar artery; 10 μg/kg, 120 minutes): 17.1 ± 5.1%; Time-course of Changes of the Diameter of the Artery (basilar artery; 100 μg/kg, 15 minutes): 16.6 ± 7.6%; Time-course of Changes of the Diameter of the Artery (basilar artery; 100 μg/kg, 30 minutes): 15.1 ± 5.1%; Time-course of Changes of the Diameter of the Artery (basilar artery; 100 μg/kg, 45 minutes): 25.9 ± 7.5%; Time-course of Changes of the Diameter of the Artery (basilar artery; 100 μg/kg, 60 minutes): 24.4 ± 7.5%; Time-course of Changes of the Diameter of the Artery (basilar artery; 100 μg/kg, 90 minutes): 21.6 ± 7.3%; Time-course of Changes of the Diameter of the Artery (basilar artery; 100 μg/kg, 120 minutes): 25.5 ± 7.9%
2 | COC(=O)C1=C(C)NC(C)=C(C(=O)OCCN(C)Cc2ccccc2)C1c1cccc([N+](=O)[O-])c1 (stereo not drawn) [Nicardipine, reference compound] | 91.7 ± 14.8 | 73.4 ± 15.2 | 48.1 ± 13.2 | 37.0 ± 10.4 | 23.0 ± 17.7 | 8.2 ± 10.8 | -0.5 ± 8.9 | 31.4 ± 5.2 | 77.8 ± 17.4 | 91.7 ± 14.8 | 6.2 ± 1.8 | 13.4 ± 2.8 | 15.9 ± 2.5 | 11.6 ± 2.9 | 8.8 ± 4.2 | 9.1 ± 5.3 | 8.9 ± 3.2 | 20.5 ± 5.1 | 6.4 ± 1.3 | 15.9 ± 2.5 | Maximum Changes of Blood Flow (vertebral artery of dog; id, 320 μg/kg): 33.7 ± 14.3%; Maximum Changes of Blood Flow (vertebral artery of dog; id, 1000 μg/kg): 56.0 ± 28.5%; Maximum Changes of Blood Flow (vertebral artery of dog; id, 3200 μg/kg): 131.3 ± 36.0%; ATP (ischemic brain; vehicle 1.97 ± 0.06, normal rat 2.38 ± 0.13): 1.92 ± 0.11 μmol/brain 1 g; Lactic acid (ischemic brain; vehicle 3.84 ± 0.28, normal rat 1.83 ± 0.18): 3.84 ± 0.14 μmol/brain 1 g; EC50 [3]: 0.7 ± 0.07 nM; duration of improving activity of cerebral circulation (cerebral circulation): short; improving activity of cerebral circulation (cerebral circulation): have improving activity of cerebral circulation
3 | COCCOC(=O)C1=C(C)NC(C)=C(C(=O)OC(C)C)C1c1cccc([N+](=O)[O-])c1 (stereo not drawn) [nimodipine] | – | – | – | – | – | – | – | – | – | – | – | – | – | – | – | – | – | – | – | – | brain ATP content after reperfusion ([4]; after reperfusion): improves; electroencephalogram after reperfusion ([4]; after reperfusion): improves; electroencephalogram and brain ATP content during ischemia ([4]; during ischemia): not improve them during ischemia; liberation of free fatty acids ([4]; same model): no effect; improving activity of cerebral circulation (cerebral circulation): have improving activity of cerebral circulation
